melting point: 143 to 144 °C
SMILES: CCN1CCN(c2ccc(Nc3cc(N(C)C(=O)Nc4cc(OC)c(Cl)c(C(F)(F)F)c4Cl)ncn3)cc2)CC1 [Example 25, 3-(2,4-Dichloro-5-methoxy-3-trifluoromethyl-phenyl)-1-{6-[4-(4-ethyl-piperazin-1-yl)-phenylamino]-pyrimidin-4-yl}-1-methyl-urea]

From patent publication US8293746B2, “Pyrimidinyl aryl urea derivatives being FGF inhibitors” (Novartis AG, priority 2005, dated 2012)
